Numbered stars: 1 amine (or outer) side, 2 acyl side, 3 side chain; on linkers, the order of the positions; unused ones are H or OH. Side chains are listed from the residue outwards. Peptide text beside a SMILES is read from it. * marks the point of attachment. X1 = O=C(CCCCCCCCCCCCCCCc1nnn[nH]1)NS(=O)(=O)CCCC(=O)*; C18 diacid = O=C(O)CCCCCCCCCCCCCCCCC(=O)*; γGlu = O=C(O)[C@H](CCC(=O)[*:2])N[*:1]; AEEA = NCCOCCOCC(=O)O
Legend:
[1] = target: T1, glucagon receptor (Homo sapiens, UniProt P47871); experiment: Assay (I) Glucagon activity (cAMP biosensor, FLIPR); type: cell-based
T1 construct: expressed in transfected cells
T1 sequence (P47871 26-477): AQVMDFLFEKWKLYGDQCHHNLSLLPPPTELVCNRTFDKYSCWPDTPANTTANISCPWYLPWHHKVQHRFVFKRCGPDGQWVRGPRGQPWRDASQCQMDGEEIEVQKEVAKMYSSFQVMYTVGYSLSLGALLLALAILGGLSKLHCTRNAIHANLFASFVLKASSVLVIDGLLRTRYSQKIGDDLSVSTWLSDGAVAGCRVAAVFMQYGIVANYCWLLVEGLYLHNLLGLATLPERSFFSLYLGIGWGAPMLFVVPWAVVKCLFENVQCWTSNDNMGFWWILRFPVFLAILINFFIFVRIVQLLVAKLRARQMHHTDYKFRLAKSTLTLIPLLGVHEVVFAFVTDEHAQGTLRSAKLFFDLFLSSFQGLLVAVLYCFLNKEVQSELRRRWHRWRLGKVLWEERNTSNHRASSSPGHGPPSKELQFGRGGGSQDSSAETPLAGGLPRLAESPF

[2] = Assay (X) Chemical stability assessment by RP-UPLC; type: physicochemical; conditions: pH 8.15, 14 days at 37° C. vs 5° C., 333 μM

With CC(C)C[C@H](NC(=O)[C@H](Cc1c[nH]c2ccccc12)NC(=O)[C@H](CCCCNC(=O)CC[C@H](NC(=O)CC[C@H](NC(=O)COCCOCCNC(=O)COCCOCCNC(=O)CC[C@H](NC(=O)CCCCCCCCCCCCCCCCC(=O)O)C(=O)O)C(=O)O)C(=O)O)NC(=O)[C@@H](NC(=O)[C@H](Cc1ccccc1)NC(=O)[C@H](CC(=O)O)NC(=O)[C@H](CCC(N)=O)NC(=O)[C@H](C)NC(=O)[C@H](CCCNC(=N)N)NC(=O)[C@H](CCCNC(=N)N)NC(=O)[C@@H](NC(=O)[C@H](CC(=O)O)NC(=O)[C@H](CC(C)C)NC(=O)[C@H](Cc1ccc(O)cc1)NC(=O)[C@H](CCCNC(=N)N)NC(=O)[C@H](CO)NC(=O)[C@H](Cc1ccc(O)cc1)NC(=O)[C@H](CC(=O)O)NC(=O)[C@H](CO)NC(=O)[C@@H](NC(=O)[C@H](Cc1ccccc1)NC(=O)[C@@H](NC(=O)CNC(=O)[C@H](CCC(N)=O)NC(=O)[C@H](CO)NC(=O)[C@@H](N)Cc1c[nH]cn1)[C@@H](C)O)[C@@H](C)O)[C@@H](C)O)C(C)C)C(=O)N[C@@H](CC(C)C)C(=O)N[C@@H](CC(N)=O)C(=O)N[C@H](C(=O)O)[C@@H](C)O [Example 10, N^ε24-[(4S)-4-carboxy-4-[[(4S)-4-carboxy-4-[[2-[2-[2-[[2-[2-[2-[[(4S)-4-carboxy-4-(17-carboxyheptadecanoylamino)butanoyl]amino]ethoxy]ethoxy]acetyl]amino]ethoxy]ethoxy]acetyl]amino]butanoyl]amino]butanoyl]-[Arg^12,Thr^16,Lys^24,Leu^27]-Glucagon] (H-HSQGTFTSDYSRYLDTRRAQDFVK([γGlu-γGlu-AEEA-AEEA-γGlu-C18 diacid])WLLNT-OH) the EC50 [1] was 31 pM and the “Chemical stability [Purity loss/14 days 37 C.]” value [2] was 10.3%.
For CC(C)C[C@H](NC(=O)[C@H](CC(=O)O)NC(=O)[C@H](CC(C)C)NC(=O)[C@H](Cc1ccc(O)cc1)NC(=O)[C@H](CCCCN)NC(=O)[C@H](CO)NC(=O)[C@H](Cc1ccc(O)cc1)NC(=O)[C@H](CC(=O)O)NC(=O)[C@H](CO)NC(=O)[C@@H](NC(=O)[C@H](Cc1ccccc1)NC(=O)[C@@H](NC(=O)CNC(=O)[C@H](CCC(N)=O)NC(=O)[C@H](CO)NC(=O)[C@@H](N)Cc1c[nH]cn1)[C@@H](C)O)[C@@H](C)O)C(=O)N[C@@H](CCCNC(=N)N)C(=O)N[C@@H](CCCNC(=N)N)C(=O)N[C@@H](C)C(=O)N[C@@H](CCC(N)=O)C(=O)N[C@@H](CC(=O)O)C(=O)N[C@@H](Cc1ccccc1)C(=O)N[C@H](C(=O)N[C@@H](CCCCNC(=O)CC[C@H](NC(=O)CC[C@H](NC(=O)COCCOCCNC(=O)COCCOCCNC(=O)CC[C@H](NC(=O)CCCCCCCCCCCCCCC(=O)O)C(=O)O)C(=O)O)C(=O)O)C(=O)N[C@@H](Cc1c[nH]c2ccccc12)C(=O)N[C@@H](CC(C)C)C(=O)N[C@@H](CC(C)C)C(=O)N[C@@H](CO)C(=O)N[C@H](C(=O)O)[C@@H](C)O)C(C)C [Example 85, N^ε24-[(4S)-4-carboxy-4-[[(4S)-4-carboxy-4-[[2-[2-[2-[[2-[2-[2-[[(4S)-4-carboxy-4-(15-carboxypentadecanoylamino)butanoyl]amino]ethoxy]ethoxy]acetyl]amino]ethoxy]ethoxy]acetyl]amino]butanoyl]amino]butanoyl]-[Leu16,Lys24,Leu27,Ser28]-Glucagon], the EC50 [1] was 39 pM and the “Chemical stability [Purity loss/14 days 37 C.]” value [2] was 7.4%.
In the case of CC(C)C[C@H](NC(=O)[C@H](Cc1ccc(O)cc1)NC(=O)[C@H](CCCCN)NC(=O)[C@H](CO)NC(=O)[C@H](Cc1ccc(O)cc1)NC(=O)[C@H](CC(=O)O)NC(=O)[C@H](CO)NC(=O)[C@@H](NC(=O)[C@H](Cc1ccccc1)NC(=O)[C@@H](NC(=O)CNC(=O)[C@H](CCC(N)=O)NC(=O)[C@H](CO)NC(=O)[C@@H](N)Cc1c[nH]cn1)[C@@H](C)O)[C@@H](C)O)C(=O)N[C@@H](CCC(=O)O)C(=O)N[C@@H](CO)C(=O)N[C@@H](CCCNC(=N)N)C(=O)N[C@@H](CCCNC(=N)N)C(=O)N[C@@H](C)C(=O)N[C@@H](CCC(N)=O)C(=O)N[C@@H](CC(=O)O)C(=O)N[C@@H](Cc1ccccc1)C(=O)N[C@H](C(=O)N[C@@H](CCCCNC(=O)CC[C@H](NC(=O)CC[C@H](NC(=O)COCCOCCNC(=O)CC[C@H](NC(=O)CCCS(=O)(=O)NC(=O)CCCCCCCCCCCCCCCc1nnn[nH]1)C(=O)O)C(=O)O)C(=O)O)C(=O)N[C@@H](Cc1c[nH]c2ccccc12)C(=O)N[C@@H](CC(C)C)C(=O)N[C@@H](CC(C)C)C(=O)N[C@@H](CO)C(=O)N[C@H](C(=O)O)[C@@H](C)O)C(C)C [Example 65, N^ε24-[(4S)-4-carboxy-4-[[(4S)-4-carboxy-4-[[2-[2-[2-[[(4S)-4-carboxy-4-[4-[16-(1H-tetrazol-5-yl)hexadecanoylsulfarnoyl]butanoylamino]butanoyl]amino]ethoxy]ethoxy]acetyl]amino]butanoyl]amino]butanoyl]-[Glu15,Lys24,Leu27,Ser28]-Glucagon] (H-HSQGTFTSDYSKYLESRRAQDFVK([γGlu-γGlu-AEEA-γGlu-X1])WLLST-OH; N-terminus and C-terminus assumed), the EC50 [1] is reported as 362 pM and the “Chemical stability [Purity loss/14 days 37 C.]” value [2] is reported as 7.8%.
With CC(C)C[C@H](NC(=O)[C@H](CC(=O)O)NC(=O)[C@H](CC(C)C)NC(=O)[C@H](Cc1ccc(O)cc1)NC(=O)[C@H](CCCNC(=N)N)NC(=O)[C@H](CO)NC(=O)[C@H](Cc1ccc(O)cc1)NC(=O)[C@H](CC(=O)O)NC(=O)[C@H](CO)NC(=O)[C@@H](NC(=O)[C@H](Cc1ccccc1)NC(=O)[C@@H](NC(=O)CNC(=O)[C@H](CCC(N)=O)NC(=O)[C@H](CO)NC(=O)[C@@H](N)Cc1c[nH]cn1)[C@@H](C)O)[C@@H](C)O)C(=O)N[C@@H](CCCNC(=N)N)C(=O)N[C@@H](CCCNC(=N)N)C(=O)N[C@@H](C)C(=O)N[C@@H](CCC(N)=O)C(=O)N[C@@H](CC(=O)O)C(=O)N[C@@H](Cc1ccccc1)C(=O)N[C@H](C(=O)N[C@@H](CCCCNC(=O)CC[C@H](NC(=O)CC[C@H](NC(=O)COCCOCCNC(=O)COCCOCCNC(=O)CC[C@H](NC(=O)CCCS(=O)(=O)NC(=O)CCCCCCCCCCCCCCCc1nnn[nH]1)C(=O)O)C(=O)O)C(=O)O)C(=O)N[C@@H](Cc1c[nH]c2ccccc12)C(=O)N[C@@H](CC(C)C)C(=O)N[C@@H](CC(C)C)C(=O)N[C@@H](CO)C(=O)N[C@H](C(=O)O)[C@@H](C)O)C(C)C [Example 67, N^ε24-[(4S)-4-carboxy-4-[[(4S)-4-carboxy-4-[[2-[2-[2-[[2-[2-[2-[[(4S)-4-carboxy-4-[4-[16-(1H-tetrazol-5-yl)hexadecanoylsulfannoyl]butanoylamino]butanoyl]amino]ethoxy]ethoxy]acetyl]amino]ethoxy]ethoxy]acetyl]amino]butanoyl]amino]butanoyl]-[Arg12,Leu16,Lys24,Leu27,Ser28]-Glucagon] (H-HSQGTFTSDYSRYLDLRRAQDFVK([γGlu-γGlu-AEEA-AEEA-γGlu-X1])WLLST-OH) the EC50 [1] was 231 pM and the “Chemical stability [Purity loss/14 days 37 C.]” value [2] was 7.4%.
With CC(C)C[C@H](NC(=O)[C@H](CC(=O)O)NC(=O)[C@H](CC(C)C)NC(=O)[C@H](Cc1ccc(O)cc1)NC(=O)[C@H](CCCCN)NC(=O)[C@H](CO)NC(=O)[C@H](Cc1ccc(O)cc1)NC(=O)[C@H](CC(=O)O)NC(=O)[C@H](CO)NC(=O)[C@@H](NC(=O)[C@H](Cc1ccccc1)NC(=O)[C@@H](NC(=O)CNC(=O)[C@H](CCC(N)=O)NC(=O)[C@H](CO)NC(=O)[C@@H](N)Cc1c[nH]cn1)[C@@H](C)O)[C@@H](C)O)C(=O)N[C@@H](CCCNC(=N)N)C(=O)N[C@@H](CCCNC(=N)N)C(=O)N[C@@H](C)C(=O)N[C@@H](CCC(N)=O)C(=O)N[C@@H](CC(=O)O)C(=O)N[C@@H](Cc1ccccc1)C(=O)N[C@H](C(=O)N[C@@H](CCCCNC(=O)CC[C@H](NC(=O)CC[C@H](NC(=O)CC[C@H](NC(=O)CC[C@H](NC(=O)CCCCCCCCCCCCCCCCC(=O)O)C(=O)O)C(=O)O)C(=O)O)C(=O)O)C(=O)N[C@@H](Cc1c[nH]c2ccccc12)C(=O)N[C@@H](CC(C)C)C(=O)N[C@@H](CC(C)C)C(=O)N[C@@H](CO)C(=O)N[C@H](C(N)=O)[C@@H](C)O)C(C)C [Example 77, N^ε24-[(4S)-4-carboxy-4-[[(4S)-4-carboxy-4-[[(4S)-4-carboxy-4-[[(4S)-4-carboxy-4-(17-carboxyheptadecanoylamino)butanoyl]amino]butanoyl]amino]butanoyl]amino]butanoyl]-[Leu16,Lys24,Leu27,Ser28]-Glucagon amide] the EC50 [1] was 812 pM and the “Chemical stability [Purity loss/14 days 37 C.]” value [2] was 4.1%.
With CC(C)C[C@H](NC(=O)[C@H](Cc1c[nH]c2ccccc12)NC(=O)[C@H](CCCCNC(=O)CC[C@H](NC(=O)COCCOCCNC(=O)COCCOCCNC(=O)CC[C@H](NC(=O)CC[C@H](NC(=O)CCCCCCCCCCCCCCCCC(=O)O)C(=O)O)C(=O)O)C(=O)O)NC(=O)[C@@H](NC(=O)[C@H](Cc1ccccc1)NC(=O)[C@H](CCC(=O)O)NC(=O)[C@H](CCC(N)=O)NC(=O)[C@H](C)NC(=O)[C@H](CCCNC(=N)N)NC(=O)[C@H](CCCNC(=N)N)NC(=O)[C@@H](NC(=O)[C@H](CC(=O)O)NC(=O)[C@H](CC(C)C)NC(=O)[C@H](Cc1ccc(O)cc1)NC(=O)[C@H](CCCNC(=N)N)NC(=O)[C@H](CO)NC(=O)[C@@H](NC(=O)[C@H](CC(=O)O)NC(=O)[C@H](CO)NC(=O)[C@@H](NC(=O)[C@H](Cc1ccccc1)NC(=O)[C@@H](NC(=O)CNC(=O)[C@H](CCC(N)=O)NC(=O)[C@H](CO)NC(=O)[C@@H](N)Cc1c[nH]cn1)[C@@H](C)O)[C@@H](C)O)C(C)C)[C@@H](C)O)C(C)C)C(=O)N[C@@H](CC(C)C)C(=O)N[C@@H](CO)C(=O)N[C@H](C(=O)O)[C@@H](C)O [Example 64, N^ε24-[(4S)-4-carboxy-4-[[2-[2-[2-[[2-[2-[2-[[(4S)-4-carboxy-4-[[(4S)-4-carboxy-4-(17-carboxyheptadecanoylamino)butanoyl]amino]butanoyl]amino]ethoxy]ethoxy]acetyl]amino]ethoxy]ethoxy]acetyl]amino]butanoyl]-[Val10,Arg12,Thr16,Glu21,Lys24,Leu27,Ser28]-Glucagon] (H-HSQGTFTSDVSRYLDTRRAQEFVK([γGlu-AEEA-AEEA-γGlu-γGlu-C18 diacid])WLLST-OH) the EC50 [1] was 176 pM and the “Chemical stability [Purity loss/14 days 37 C.]” value [2] was 5.1%.
